Assay results as given in ChEMBL document CHEMBL1201862, “PubChem BioAssay data set” (2004).
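Cells were grown in 96-well plates and exposed to each compound for 48 hours at five concentrations; endpoints were interpolated linearly between bracketing concentrations, or set to the highest concentration if not reached. GI50 marks 50% less growth.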 Calls of active or inactive are those of the source. No stated cut-off is given here; in the data, active = GI50 up to about 1.1 µM and inactive = higher.

Columns and labels:
Experiment in all cases: inhibition of tumour cell growth, NCI panel, 48 h
COLO 205 = system: COLO 205
LOX IMVI = system: LOX IMVI
SF-295 = system: SF-295
UO-31 = system: UO-31
SK-MEL-28 = system: SK-MEL-28
TK-10 = system: TK-10
HOP-92 = system: HOP-92
ACHN = system: ACHN
SF-268 = system: SF-268
CCRF-CEM = system: CCRF-CEM
NCI-H522 = system: NCI-H522
786-0 = system: 786-0
NCI-H23 = system: NCI-H23
SK-OV-3 = system: SK-OV-3
RPMI-8226 = system: RPMI-8226
HOP-62 = system: HOP-62
HCT-116 = system: HCT-116
RXF 393 = system: RXF 393
SNB-75 = system: SNB-75

Row | Compound | GI50 (COLO 205) | GI50 (LOX IMVI) | GI50 (SF-295) | GI50 (UO-31) | GI50 (SK-MEL-28) | GI50 (TK-10) | GI50 (HOP-92) | GI50 (ACHN) | GI50 (SF-268) | GI50 (CCRF-CEM) | GI50 (NCI-H522) | GI50 (786-0) | GI50 (NCI-H23) | GI50 (SK-OV-3) | GI50 (RPMI-8226) | GI50 (HOP-62) | GI50 (HCT-116) | GI50 (RXF 393) | GI50 (SNB-75)
1 | CC(=O)NNc1nc(C)c(C(=O)NNC(=O)C(=O)Nc2ccc(Cl)c([N+](=O)[O-])c2)s1 | > 100 µM (inactive) | 31.3 µM (inactive) | 74.8 µM (inactive) | > 100 µM (inactive) | > 100 µM (inactive) | > 100 µM (inactive) | 43.3 µM (inactive) | 41.1 µM (inactive) | 35.8 µM (inactive) | 21.9 µM (inactive) | 26.2 µM (inactive) | 50 µM (inactive) | 37.7 µM (inactive) | > 100 µM (inactive) | 43.7 µM (inactive) | > 100 µM (inactive) | 85.3 µM (inactive) |  | 
2 | O=C(Nc1ccccc1)c1ccc(Cl)c([N+](=O)[O-])c1 | 28.2 µM (inactive) | 4.46 µM (inactive) | 15.3 µM (inactive) | 36.1 µM (inactive) | 22.4 µM (inactive) | 29.3 µM (inactive) |  |  | > 10 µM (inactive) | 4.14 µM (inactive) | 6.79 µM (inactive) | 4.85 µM (inactive) | 23 µM (inactive) | 23.6 µM (inactive) | 3.88 µM (inactive) | 32.7 µM (inactive) |  | 21.7 µM (inactive) | 13.8 µM (inactive)
3 | CC(NC(=O)C(=O)N/N=C1\C[C@@H](c2ccccc2)Nc2ccccc21)c1ccccc1 (some centres undefined) | 48.2 µM (inactive) | > 100 µM (inactive) | > 100 µM (inactive) | 33 µM (inactive) | > 100 µM (inactive) | > 100 µM (inactive) | 20 µM (inactive) | 36.1 µM (inactive) | 94.6 µM (inactive) |  | > 100 µM (inactive) | > 100 µM (inactive) | > 100 µM (inactive) |  |  | > 100 µM (inactive) | > 100 µM (inactive) | 53.7 µM (inactive) | 10.7 µM (inactive)
4 | CNS(=O)(=O)NNS(=O)(=O)c1ccc(F)cc1 | > 100 µM (inactive) | > 100 µM (inactive) | > 100 µM (inactive) | > 100 µM (inactive) |  |  |  | > 100 µM (inactive) | > 100 µM (inactive) | > 100 µM (inactive) | > 100 µM (inactive) | > 100 µM (inactive) | > 100 µM (inactive) |  | > 100 µM (inactive) | > 100 µM (inactive) | > 100 µM (inactive) | > 100 µM (inactive) | > 100 µM (inactive)
5 | NCc1c(C(N)=O)ncn1Cc1ccccc1 | > 100 µM (inactive) | > 100 µM (inactive) | > 100 µM (inactive) |  | > 100 µM (inactive) | > 100 µM (inactive) | 65.9 µM (inactive) | > 100 µM (inactive) |  | > 100 µM (inactive) |  | > 100 µM (inactive) | > 100 µM (inactive) | > 100 µM (inactive) | > 100 µM (inactive) | > 100 µM (inactive) | > 100 µM (inactive) | > 100 µM (inactive) | > 100 µM (inactive)
6 | CC(C)(C)c1cc(O)c2c(c1O)C(=O)CCC2 | 73.8 µM (inactive) | 28.4 µM (inactive) | 30.2 µM (inactive) |  | 42.6 µM (inactive) | 40.9 µM (inactive) | 2.69 µM (inactive) | 50.2 µM (inactive) |  | 35.2 µM (inactive) |  | 32.1 µM (inactive) | 28.9 µM (inactive) | 40.5 µM (inactive) | 21.1 µM (inactive) | 22.8 µM (inactive) | 31.7 µM (inactive) | 19.1 µM (inactive) | 42.4 µM (inactive)
7 | CC(=O)NNc1nc(C)c(C(/C=C/c2ccc(Cl)cc2)=N/NC(=O)C[N+](C)(C)C)s1 | > 100 µM (inactive) | > 100 µM (inactive) | > 100 µM (inactive) | > 100 µM (inactive) | > 100 µM (inactive) | > 100 µM (inactive) | > 100 µM (inactive) | > 100 µM (inactive) | > 100 µM (inactive) | > 100 µM (inactive) | > 100 µM (inactive) | > 100 µM (inactive) | > 100 µM (inactive) | > 100 µM (inactive) |  |  | > 100 µM (inactive) | > 100 µM (inactive) | > 100 µM (inactive)
8 | Nc1nc(N)c(-c2ccccc2)c(C(=O)Nc2nccs2)n1 | > 100 µM (inactive) | > 100 µM (inactive) | > 100 µM (inactive) | > 100 µM (inactive) | > 100 µM (inactive) | > 100 µM (inactive) | > 100 µM (inactive) | > 100 µM (inactive) | > 100 µM (inactive) | > 100 µM (inactive) |  | > 100 µM (inactive) | > 100 µM (inactive) | > 100 µM (inactive) |  | > 100 µM (inactive) | > 100 µM (inactive) | > 100 µM (inactive) | 
9 | Cc1ccc(Nc2nc(C)c(C(/C=C/c3ccc4c(c3)OCO4)=N/Nc3ccc([N+](=O)[O-])cc3[N+](=O)[O-])s2)c([N+](=O)[O-])c1 | 56.5 µM (inactive) | 16.3 µM (inactive) | 65 µM (inactive) | 21.8 µM (inactive) | > 100 µM (inactive) | 37.8 µM (inactive) |  | 21.5 µM (inactive) | 53.2 µM (inactive) | 28.2 µM (inactive) | 14.2 µM (inactive) | 91.2 µM (inactive) | 33.2 µM (inactive) | 26.7 µM (inactive) |  | 32.8 µM (inactive) | 52.7 µM (inactive) | 38 µM (inactive) | 56.8 µM (inactive)
10 | COc1cc(C(C)c2cc3c(cc2OCCNC(=O)COc2cc4c(cc2C(C)c2cc(OC)c(OC)c(OC)c2)OCO4)OCO3)cc(OC)c1OC (centres undefined) | 48.2 µM (inactive) | 42.3 µM (inactive) | > 100 µM (inactive) | > 100 µM (inactive) | > 100 µM (inactive) | > 100 µM (inactive) |  | 63.2 µM (inactive) | 50.4 µM (inactive) | 30.5 µM (inactive) | 29.5 µM (inactive) | 49.8 µM (inactive) | > 100 µM (inactive) |  |  | 58.7 µM (inactive) | 87.9 µM (inactive) | > 100 µM (inactive) | 3.09 µM (inactive)
11 | N#CC(/C(CCCC(=O)Nc1cccc([N+](=O)[O-])c1)=N\NC(=O)c1c(O)ccc2ccccc12)c1nc2ccccc2s1 (centres undefined) | 30.1 µM (inactive) |  | 28.6 µM (inactive) | 14.3 µM (inactive) | 21.5 µM (inactive) |  | 53.1 µM (inactive) | 20.7 µM (inactive) | 13.1 µM (inactive) | 5.35 µM (inactive) | 25.8 µM (inactive) | 34.6 µM (inactive) | 37.5 µM (inactive) | 25.5 µM (inactive) |  | 27.8 µM (inactive) | 8.43 µM (inactive) | 33.4 µM (inactive) | 10.7 µM (inactive)
12 | CCC(=O)OC[n+]1ccc2c(C)c3[nH]c4ccc(OC)cc4c3c(C)c2c1 | 0.0906 µM (active) | 0.0927 µM (active) | 0.0738 µM (active) |  | 0.759 µM (active) | 0.94 µM (active) | 0.0556 µM (active) | 0.0485 µM (active) | 0.24 µM (active) | 0.0685 µM (active) |  | 0.176 µM (active) | 0.22 µM (active) |  | 0.182 µM (active) |  | 0.0182 µM (active) | 0.166 µM (active) | 0.434 µM (active)
13 | COc1ccc(/C=C/C(=O)C(C)(C)CN2CCCCC2)cc1 | 15.6 µM (inactive) | 14.9 µM (inactive) | 38.1 µM (inactive) | 17.7 µM (inactive) | 24.2 µM (inactive) | 20.8 µM (inactive) |  | 24.4 µM (inactive) | 22.1 µM (inactive) | 24.2 µM (inactive) | 14 µM (inactive) | 16 µM (inactive) | 24.5 µM (inactive) | 21.5 µM (inactive) | 18.2 µM (inactive) | 32.2 µM (inactive) | 16.2 µM (inactive) | 21.3 µM (inactive) | 12.4 µM (inactive)
14 | CC(=O)N(C)c1ccc2c(ccc[n+]2[O-])c1[N+](=O)[O-] | > 100 µM (inactive) | > 100 µM (inactive) | > 100 µM (inactive) | > 100 µM (inactive) | > 100 µM (inactive) | > 100 µM (inactive) |  | > 100 µM (inactive) | > 100 µM (inactive) | > 100 µM (inactive) |  | > 100 µM (inactive) | > 100 µM (inactive) |  | > 100 µM (inactive) | > 100 µM (inactive) | > 100 µM (inactive) | > 100 µM (inactive) | > 100 µM (inactive)
15 | Cc1ccc(C(=O)Nc2ccccc2)cc1/N=N/N(C)C |  | > 100 µM (inactive) | > 100 µM (inactive) | > 100 µM (inactive) | > 100 µM (inactive) | > 100 µM (inactive) | > 100 µM (inactive) | > 100 µM (inactive) | > 100 µM (inactive) |  | 35.2 µM (inactive) | 21 µM (inactive) | > 100 µM (inactive) |  |  | > 100 µM (inactive) | > 100 µM (inactive) |  | 
16 | COC(=O)C1N=CSCC1(C)O (centres undefined) | > 100 µM (inactive) | > 100 µM (inactive) | > 100 µM (inactive) | > 100 µM (inactive) | > 100 µM (inactive) | > 100 µM (inactive) | > 100 µM (inactive) | > 100 µM (inactive) | > 100 µM (inactive) | > 100 µM (inactive) |  | > 100 µM (inactive) | > 100 µM (inactive) | > 100 µM (inactive) | > 100 µM (inactive) | > 100 µM (inactive) | > 100 µM (inactive) | > 100 µM (inactive) | > 100 µM (inactive)
17 | O=C(/C=C\c1cccc2ccccc12)c1ccc(Cl)cc1Cl | 22.4 µM (inactive) |  | 20.5 µM (inactive) | 53 µM (inactive) | 18.5 µM (inactive) | 97.1 µM (inactive) |  | 18.6 µM (inactive) | 19.6 µM (inactive) | 17.3 µM (inactive) | 19.2 µM (inactive) | 18.7 µM (inactive) | 40.6 µM (inactive) | > 100 µM (inactive) | 18 µM (inactive) | > 100 µM (inactive) | 18.7 µM (inactive) |  | > 100 µM (inactive)
